Data set [1] is described as follows: In vitro-in vivo extrapolation (IVIVE) to Css and administered equivalent dose (AED). Also on record: species or system human. The following applies: for Clhep: IVIVE, hepatocyte Clint scaled to whole-liver clearance; for AED: administered equivalent dose from LOEC and Css; for Fub: fub=fup/(B:P), Fub set to 1 if needed; for CLint: scaled with HPGL 110 mill cells/g, Vl 1596 g. The method, boiled down:
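Measured plasma protein binding (fup) and hepatocyte Clint served as IVIVE inputs to estimate human steady-state plasma concentration (Css). fup was converted to blood unbound fraction using blood:plasma partitioning, and Clint was scaled to whole-liver clearance (L/h). AEDs were derived by combining Css with published in vitro lowest-observed effective concentrations.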

For data set [2], the system named is human primary cells. The following applies: cited from earlier work.
For data set [3], the system named is pooled human cryopreserved primary hepatocyte suspensions. The following applies: cited from earlier work.
The subject of data set [4] is human plasma. The following applies: cited from earlier work.
Data set [5] has as its system human plasma. Description: Ultracentrifugation (UC) plasma protein binding assay, fraction unbound in plasma (fup). The following applies: for Mean fu: fraction unbound in human plasma, used for IVIVE.
Data set [6] concerns human plasma. In words: Chemical stability in plasma over the UC assay time course (T5hr/T1hr).
Data set [7] in a line: Ultracentrifugation (UC) plasma protein binding assay, fraction unbound in plasma (fup). The following applies: both, human, plasma.
Data set [8] can be described thus: in vitro. The following applies: both, human, plasma.
Data set [9] in a line: Abiotic loss in negative controls of the hepatocyte clearance assay (cell-free media, metabolically inactivated hepatocytes). Type of data set: in vitro ADME. The following applies: both, human, 120 min, 1 μM. A digest of the protocol: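 Test compound at 1 μM incubated at 37 °C with shaking in complete William's medium E, either cell-free or with metabolically inactivated hepatocytes, then quenched with ice-cold acetonitrile for quantitative analysis.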

Data set [10] concerns human plasma. The following applies: for PPB_Stab_Fail: plasma.
For data set [11], the system named is human plasma.
A short description of data set [12]: in vitro. The following applies: both, human, plasma, Mean fu.
A short description of data set [13]: Hepatic metabolic stability (hepatocyte clearance) assay, substrate depletion. In kind it is in vitro ADME, human. The following applies: both sexes, human, hepatocytes, in vitro CLint. The method, boiled down:
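Pooled 50-donor human cryopreserved hepatocytes (50,000 cells/100 μL) incubated with 1 μM compound at 37 °C with shaking. Parent loss quantified against internal standards over time to T240 in triplicate; T½ and Clint (μL/min/million cells) from ln concentration vs time, corrected for abiotic loss in cell-free and inactivated-hepatocyte controls.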

Where [14] appears, read: Assuming 1 mg/kg/day dose rate, BW 70 kg.
[15] abbreviates: human steady-state plasma concentration, assuming 1 mg/kg/day dosage.
[16] abbreviates: BioSeek lowest-observed effect concentration used for AED.
Where [17] appears, read: minimum lowest-observed effect concentration, BioSeek platform.
Setting [18] is: legacy PFAS included for comparison.

A word on the fraction unbound: it is the share of the substance not bound to proteins or other matrix. Low readings indicate little free substance, high ones much free substance. A word on the fraction remaining: it is the share of the starting amount still present when the sample was taken. The low end stands for a greater loss, the high end for greater stability. The hepatocyte CLint is a measure of how fast metabolising enzymes remove a compound, apart from limits set by blood flow. A higher hepatocyte CLint goes with rapid turnover.

“And” between values parts separate entries of the source, which are not always exact repeats. Equal values may be shown once. Read-outs that look alike come from different tables or passages of the source.

Regarding `N.O=C(O)C(F)(F)C(F)(F)C(F)(F)C(F)(F)C(F)(F)C(F)(F)C(F)(F)F` [Ammonium perfluorooctanoate (PFOA), Ammonium perfluorooctanoate, reference compound], the Css in data set [1] (setting [14]) was 282.38 mg/L and 681.96 uM. For the same molecule, in data set [1], the Clhep is 0.003 L/h, the AED is 0.0029 mg/kg/day, the Fub is on record as 0.001091 and the CLint is given as 47401.2 µL/min. Further, the Css in [1] (setting [15]) is 681.96 µM. Moreover, in data set [1] (human steady-state plasma concentration, assuming 1 mg/kg/day dosage, listed as PFOA), the Css is 682 µM. The LOEC in data set [2] (setting [16]) was 2.00 µM. Moreover, the LOEC in [2] (setting [17]) was 2 µM. Besides, the “In Vitro Clint” value in data set [3] (setting [18]) is 0.27 μL/min/10^6 cells. Moreover, the fup in data set [4] (setting [18]) was 0.0006. For the same molecule, the Mean fu in [5] came out at 0.0006.
Consider `Cc1ccc([N+](=O)[O-])cc1` [4-Nitrotoluene, 4-nitrotoluene, reference compound], for which, in data set [6] (mean over all UC runs and replicates, human plasma), the “Mean Stability (T5hr/T1hr)” value is 0.816. Also, the Fstable.Med in [6] (median fraction stable in plasma, UC assay Level4) was determined as 0.779. Besides, the “Stability (T5hr/ T1hr), Run-specific Avg” value in data set [6] (run-specific average) was 0.82 and 0.84 and 0.81 and 0.78. The fraction unbound at 5 h, 10 μM in data set [7] (Fraction Unbound (fu), Run-specific Avg, run-specific average) was determined as 0.06; in [7] (Mean Fu (fraction unbound), mean over all UC runs and replicates, human plasma), 0.0581. This molecule also showed a Fup.Med in [5] (median fraction unbound in plasma, UC assay Level4) of 0.0679. In [5] (point estimate of fraction unbound in plasma, UC assay Level4), the Fup.point was 0.0612. In data set [5] (run-specific average), the “Fraction Unbound (fu), Run-specific Avg” value is 0.0534 and 0.08.
As for `O=S(=O)([O-])C(F)(F)C(F)(F)C(F)(F)C(F)(F)C(F)(F)C(F)(F)C(F)(F)C(F)(F)F.[K+]` [Potassium perfluorooctanesulfonate, reference compound], the Css in data set [1] (setting [14]) was 15.71 mg/L and 31.41 uM. Moreover, in data set [1], the Clhep is given as 0.138 L/h, the AED is 0.2229 mg/kg/day, the Fub is on record as 0.007273 and the CLint is 317764 µL/min. The Css in data set [1] (setting [15]) is 31.41 µM. In addition, the LOEC in data set [2] (setting [16]) is 7.00 µM. Moreover, the LOEC in data set [2] (setting [17]) is 7 µM. Moreover, the “In Vitro Clint” value in [3] (setting [18]) is listed as 1.81 μL/min/10^6 cells. The fup in [4] (setting [18]) is reported as 0.0040. Moreover, the Mean fu in data set [5] came out at 0.004.
In data set [8], `FC(F)(F)C(F)(C(F)(F)F)C(F)(F)C(F)(F)CC1CO1` (stereo not drawn) [3-(Perfluoro-3-methylbutyl)-1,2-propenoxide] returned a share remaining at 5 h, 10 μM of 0%. In [9], the Hep_Stab_Fail was 1. The PPB_Stab_Fail in data set [10] (both, human, 5 h, 10 μM) was found to be 1.
`C=CC(=O)OCC(F)(F)C(F)F` [2,2,3,3-Tetrafluoropropyl acrylate] showed a fraction remaining at 5 h, 10 μM in data set [8] of 0%. The Hep_Stab_Fail in data set [9] amounted to 1. Moreover, in data set [11], the Uncertain result is “Y”. Moreover, in data set [11] (both, human, 5 h, 10 μM), the Fup.Med is 1.93E-08 and the Fup.point is listed as 0.234. Also, in [10], the Unstable entry is on record as “Y”. Further, in [10] (both, human, 5 h, 10 μM), the Fstable.Med is on record as 0.000712 and the PPB_Stab_Fail stood at 1.
Take `NS(=O)(=O)C(F)(F)C(F)(F)C(F)(F)C(F)(F)C(F)(F)C(F)(F)C(F)(F)C(F)(F)F` [Perfluorooctanesulfonamide, reference compound]: the fraction unbound at 5 h, 10 μM in [12] came out at 0.0039. Also, the Css in data set [1] (setting [14]) is 3.16 mg/L and 6.33 uM. In [1], the Clhep is 0.882 L/h, the AED is 0.3157 mg/kg/day, the Fub is on record as 0.007091 and the CLint is 2094431 µL/min. Also, in [1] (setting [15]), the Css is 6.33 µM. In addition, the LOEC in data set [2] (setting [16]) is 2.00 µM. Also, the LOEC in data set [2] (setting [17]) was 2 µM. For the same molecule, the hepatocyte CLint at 1 μM in data set [13] worked out at 11.9 µL/min/1e6 cells. Also, the “In Vitro Clint” value in data set [3] was 11.93 μL/min/10^6 cells. Moreover, the fup in data set [4] is given as 0.0039.
